Measurements from PubChem BioAssay AID2060500 (Molecular Pharmacology Branch, DTP, NCI, 2025).

Tested on: 596521-263-R-J1-PDC complex spheroids, viability % of control
Assay: Anticancer human tumor 596521-263-R-J1-PDC patient-derived soft tissue sarcoma cell line growth inhibition [GQUAD]
Conditions: for viability, T/C: stronger effect = lower value
From the text: DNA G-quadruplex Stabilizer Agents in Combinations in Complex Spheroids
A high-throughput screen of multi-cell type tumor spheroids was designed to identify active combinations of DNA G-quadruplex stabilizer agents and targeted small molecules. Complex spheroids include a stromal component modeled by human endothelial cells (HUVEC) and fibroblasts modeled by human mesenchymal stem cells (MSCs). The concentration ranges selected for each drug and investigational agent were based upon clinically achievable concentrations if the clinical Cmax of the agent was known.
Compounds. The drugs and investigational agents: pidnarulex (CX-5461; NSC782164), APTO-253 (NSC789042), BRACO-19 (NSC847499), peposertib (NSC802822), ceralasertib (NSC780249), elimusertib (NSC800525), camonsertib (NSC841442), AZD-1390 (NSC803789), olaparib (NSC753686), talazoparib (NSC767125), ART-558 (NSC835418), sotorasib (NSC818433), MRTX-1133 (NSC836407), SN-38 (NSC673596), topotecan (NSC609699), etoposide (NSC141540), doxorubicin (NSC123127), gemcitabine (NSC613327), 5-fluorouracil (NSC19893), paclitaxel (NSC125973), vemurafenib (NSC761431), panobinostat (NSC761190), R-306465 (JNJ-16241199; NSC773264), adavosertib (NSC754352), TP-3654 (NSC805149), carboplatin (NSC241240), KSQ-4279 (NSC840948), and staurosporine (NSC755774) were obtained from the National Cancer Institute (NCI) Developmental Therapeutics Program Chemical Repository (34). The FDA-approved anticancer drug set is available from the NCI Developmental Therapeutics Program. […] The stock solutions were prepared in dimethyl sulfoxide (DMSO, Sigma-Aldrich, St. Louis, MO, cat. D2650) at 800-fold the tested concentration and stored at -70 degrees C prior to their use. All drugs and investigational agents were tested over a range starting from a high concentration at or near the clinical Cmax and decreasing in half-log increments. If the clinical Cmax for an agent had not been determined, the highest concentration tested was 10 microM.
2.3 Cell Culture. All cells were maintained in an incubator at 37 degrees C and 5% CO2 with 95% humidity. The PDC lines were cultured according to standard operating procedures established by the NCI PDMR. All PDCs were thawed and cultured in Matrigel-coated flasks prepared with a working solution of 1X Ham's F-12 nutrient mix, without supplementation (Invitrogen, cat. 11765054), 100 U/mL penicillin-streptomycin (Invitrogen, cat. 15140122), and 2.5% Matrigel (Corning Inc., cat. 354248) for the first three passages. The 857933-349-R-J2-PDC line was cultured in 6C/Colon 1B media, which includes advanced DMEM/F-12 (Thermo Fisher Scientific, cat. 12634028), 10 mM HEPES (Thermo Fisher Scientific, cat. 15630080), 1X GlutaMAX supplement (Thermo Fisher Scientific, cat. 35050061), 0.1 mg/mL primocin (InvivoGen, cat. ant-pm-2), 10% defined fetal bovine serum, heat inactivated (HyClone Laboratories Inc., cat. SH30070.03HI), 50% L-WRN conditioned media (ATCC, cat. CRL-3276), 1.25 mM N-Acetyl-L-cysteine (Sigma-Aldrich, cat. A9165), 10 mM nicotinamide (Sigma-Aldrich, cat. N0636), 1X B-27 supplement (Thermo Fisher Scientific, cat. 17504044), 1X N-2 supplement (Thermo Fisher Scientific, cat. 17502048), 10 microM Y-27632 dihydrochloride (Tocris Bioscience, cat. 1254), and 50 ng/mL human EGF recombinant protein (Thermo Fisher Scientific, cat. PHG0311). The 485176-168-R4-J1-PDC line was cultured in Panc media, which includes all 6C/Colon 1B media components plus 100 ng/mL human FGF-10 (Thermo Fisher Scientific, cat. 100-26), 500 nM SB-431542 (Selleckchem, cat. S1067), and gastrin (Tocris, cat. 3006).
[…]

[1] = curve of first compound, second compound 0.0316 µM
[2] = curve of first compound, second compound 0.1 µM
[3] = curve of first compound, second compound 0.316 µM
[4] = curve of first compound, second compound 1 µM
[5] = curve of first compound, second compound 3.16 µM
[6] = curve of first compound, second compound 10 µM
[7] = second compound 0.0316 µM, first compound 0.0316 µM
[8] = second compound 0.0316 µM, first compound 0.1 µM
[9] = second compound 0.0316 µM, first compound 0.316 µM
[10] = second compound 0.0316 µM, first compound 1 µM
[11] = second compound 0.0316 µM, first compound 3.16 µM
[12] = second compound 0.0316 µM, first compound 10 µM
[13] = second compound 0.1 µM, first compound 0.0316 µM
[14] = second compound 0.1 µM, first compound 0.1 µM
[15] = second compound 0.1 µM, first compound 0.316 µM
[16] = second compound 0.1 µM, first compound 1 µM
[17] = second compound 0.1 µM, first compound 3.16 µM
[18] = second compound 0.1 µM, first compound 10 µM
[19] = second compound 0.316 µM, first compound 0.0316 µM
[20] = second compound 0.316 µM, first compound 0.1 µM
[21] = second compound 0.316 µM, first compound 0.316 µM
[22] = second compound 0.316 µM, first compound 1 µM
[23] = second compound 0.316 µM, first compound 3.16 µM
[24] = second compound 0.316 µM, first compound 10 µM
[25] = second compound 1 µM, first compound 0.0316 µM
[26] = second compound 1 µM, first compound 0.1 µM
[27] = second compound 1 µM, first compound 0.316 µM
[28] = second compound 1 µM, first compound 1 µM
[29] = second compound 1 µM, first compound 3.16 µM
[30] = second compound 1 µM, first compound 10 µM
[31] = second compound 3.16 µM, first compound 0.0316 µM
[32] = second compound 3.16 µM, first compound 0.1 µM
[33] = second compound 3.16 µM, first compound 0.316 µM
[34] = second compound 3.16 µM, first compound 1 µM
[35] = second compound 3.16 µM, first compound 3.16 µM
[36] = second compound 3.16 µM, first compound 10 µM
[37] = second compound 10 µM, first compound 0.0316 µM
[38] = second compound 10 µM, first compound 0.1 µM
[39] = second compound 10 µM, first compound 0.316 µM
[40] = second compound 10 µM, first compound 1 µM
[41] = second compound 10 µM, first compound 3.16 µM
[42] = second compound 10 µM, first compound 10 µM
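Note: spheroids exposed to drugs for 7 days before viability reading.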

For `CN(C)c1ccc(Nc2c3ccc(NC(=O)CCN4CCCC4)cc3nc3cc(NC(=O)CCN4CCCC4)ccc23)cc1`, the viability, T/C (compound 0.0316 µM) was 102% [middle of 12 runs], the viability, T/C (compound 0.1 µM) was 105% [middle of 12 runs] and the viability, T/C (compound 0.316 µM) was 104% [middle of 12 runs]. The viability, T/C (compound 1 µM) was 105% [middle of 12 runs], the viability, T/C (compound 3.16 µM) was 95.9% [middle of 12 runs] and the viability, T/C (compound 10 µM) was 67% [middle of 12 runs]. For the same compound, the IC50 (compound alone, run of 04/22/2024) was greater than 10 µM.
Work on `CCCS(=O)(=O)Nc1ccc(F)c(C(=O)c2c[nH]c3ncc(-c4ccc(Cl)cc4)cc23)c1F` + CN(C)c1ccc(Nc2c3ccc(NC(=O)CCN4CCCC4)cc3nc3cc(NC(=O)CCN4CCCC4)ccc23)cc1 yielded an IC50 [1] of 5.18 µM, an IC50 [2] of 5.51 µM and an IC50 [3] of 5.6 µM. For the same compound, the IC50 [4] was 6.65 µM, the IC50 [5] was 5.01 µM and the IC50 [6] was 1.82 µM. The viability, T/C [7] was 94.7%, the viability, T/C [8] was 83.9% and the viability, T/C [9] was 95.3%. The viability, T/C [10] was 82.1%, the viability, T/C [11] was 65.8% and the viability, T/C [12] was 29.4%. For the same compound, the viability, T/C [13] was 101%, the viability, T/C [14] was 88.9% and the viability, T/C [15] was 104%. It also gave a viability, T/C [16] of 83%, a viability, T/C [17] of 69.8% and a viability, T/C [18] of 29.9%. For the same compound, the viability, T/C [19] was 94.4%, the viability, T/C [20] was 93.8% and the viability, T/C [21] was 89.4%. For the same compound, the viability, T/C [22] was 80%, the viability, T/C [23] was 65.9% and the viability, T/C [24] was 34.4%. For the same compound, the viability, T/C [25] was 98.5%, the viability, T/C [26] was 97.7% and the viability, T/C [27] was 85.8%. The viability, T/C [28] was 84.1%, the viability, T/C [29] was 71% and the viability, T/C [30] was 39.1%. For the same compound, the viability, T/C [31] was 93.2%, the viability, T/C [32] was 91.7% and the viability, T/C [33] was 94%. The viability, T/C [34] was 84.3%, the viability, T/C [35] was 56.9% and the viability, T/C [36] was 39.8%. For the same compound, the viability, T/C [37] was 62.9%, the viability, T/C [38] was 60.5% and the viability, T/C [39] was 56.9%. The viability, T/C [40] was 57.3%, the viability, T/C [41] was 44.5% and the viability, T/C [42] was 30.1%.
Work on `C#Cc1c(F)ccc2cc(O)cc(-c3ncc4c(N5CC6CCC(C5)N6)nc(OCC56CCCN5CC(F)C6)nc4c3F)c12` (stereo unspecified) + CN(C)c1ccc(Nc2c3ccc(NC(=O)CCN4CCCC4)cc3nc3cc(NC(=O)CCN4CCCC4)ccc23)cc1 yielded an IC50 [1] greater than 10 µM, an IC50 [2] greater than 10 µM and an IC50 [3] greater than 10 µM. The IC50 [4] was greater than 10 µM, the IC50 [5] was greater than 10 µM and the IC50 [6] was 4.15 µM. It also gave a viability, T/C [7] of 105%, a viability, T/C [8] of 95.1% and a viability, T/C [9] of 98.7%. It also gave a viability, T/C [10] of 115%, a viability, T/C [11] of 106% and a viability, T/C [12] of 99.2%. It also gave a viability, T/C [13] of 95.5%, a viability, T/C [14] of 96.1% and a viability, T/C [15] of 107%. The viability, T/C [16] was 108%, the viability, T/C [17] was 112% and the viability, T/C [18] was 92.3%. The viability, T/C [19] was 103%, the viability, T/C [20] was 106% and the viability, T/C [21] was 98.5%. For the same compound, the viability, T/C [22] was 97.3%, the viability, T/C [23] was 104% and the viability, T/C [24] was 83.1%. It also gave a viability, T/C [25] of 100%, a viability, T/C [26] of 111% and a viability, T/C [27] of 92.5%. The viability, T/C [28] was 88.6%, the viability, T/C [29] was 104% and the viability, T/C [30] was 96.8%. For the same compound, the viability, T/C [31] was 87.4%, the viability, T/C [32] was 87.2% and the viability, T/C [33] was 98.7%. It also gave a viability, T/C [34] of 90.5%, a viability, T/C [35] of 86.6% and a viability, T/C [36] of 78.3%. The viability, T/C [37] was 64.6%, the viability, T/C [38] was 66% and the viability, T/C [39] was 70.7%. For the same compound, the viability, T/C [40] was 64.2%, the viability, T/C [41] was 54.2% and the viability, T/C [42] was 36.8%.
